Our source for the IC50 values is patent US12673930B2, “Thiophene HSD17B13 inhibitors and uses thereof” (INIPHARM, INC., priority 2020, dated 2026).

The target in test [1] is T1, HSD17B13 enzyme (Homo sapiens, UniProt Q7Z5P4).
T1 construct: His; made in house; host or cells: E. coli
T1 sequence (Q7Z5P4 20-300): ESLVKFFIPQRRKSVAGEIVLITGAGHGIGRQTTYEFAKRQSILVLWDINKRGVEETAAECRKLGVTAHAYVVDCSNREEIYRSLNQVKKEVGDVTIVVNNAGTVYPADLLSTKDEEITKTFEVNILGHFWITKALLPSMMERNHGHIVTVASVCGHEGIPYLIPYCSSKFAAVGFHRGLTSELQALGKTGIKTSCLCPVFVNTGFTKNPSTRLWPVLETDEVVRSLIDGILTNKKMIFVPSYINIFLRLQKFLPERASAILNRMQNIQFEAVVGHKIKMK
Nature of the test: NADH detection assay (fluorescence based Leukotriene B3 (LTB3) assay) for HSD17B13 activity. The class given is biochemical. As to conditions: substrate 25 μM LTB3, 3 mM NAD+, 125 nM HSD17B13 enzyme, 1 hour at 26.5° C. The procedure:
The fluorescence based Leukotriene B3 (LTB3) assay monitors the fluorescence of NADH, which is generated from NAD+ during the dehydrogenation of the substrate LTB3. The reactions were performed in a 384-well plates (Greiner; #655076) in a 20 μl reaction volume containing the following reagents (final concentrations): 25 μM LTB3 (Cayman; #20109); 3 mM NAD^+ (Sigma; #N0623); 125 nM HSD17B13 enzyme (in-house; E. coli expressed His-tagged, purified, soluble protein); 1 M potassium phosphate buffer, pH 7.4; and 1% DMSO. Reactions were initiated by co-addition of NAD+ and enzyme, and monitored for 1 hour at 26.5° C. Generation of NADH was measured as the fluorescence signal (Excitation at 340 nm and Emission at 445 nm) at 1 hour minus the baseline fluorescence at t=0. Fluorescence signals in the absence of LTB3 (negative control values), were subtracted from all values so that the results reflected substrate-dependent production of NADH. NADH standards were included to allow the conversion of relative fluorescence units into rates of enzyme activity. Enzyme activity in the presence of test compounds was expressed as a percentage of the uninhibited enzyme activity, and plotted versus inhibitor concentration. Non-linear regression was performed using a four-parameter logistic model and Microsoft Excel Solver® software. Ten concentrations of inhibitor were tested in duplicate (in the range of 30 μM-2.5 nM). Two independent concentration response assays were performed and the geometric mean is reported, =/−the SEM.

Test [2] has as its target T1, HSD17B13 enzyme. Put plainly: LC/MS estrone detection assay (conversion of estradiol to estrone by HSD17B13). It is filed as biochemical. As to conditions: substrate 4 μM estradiol, 6 mM NAD+, 30 nM HSD17B13 enzyme, 2 hours at 26.5° C. As to the method: The liquid chromatography/mass spectrometry (LC/MS) estrone detection assay monitors the conversion of estradiol to estrone by HSD17B13. This assay was performed in a 96 wp format (Eppendorf deep well Plate 96/500) in an 80 μl reaction volume containing: 4 μM estradiol (E2; Cayman; Ser. No. 10/006,315); 6 mM NAD^+ (Sigma; #N0623), and 30 nM HSD17B13 enzyme (in-house; E. coli expressed His-tagged, purified, soluble protein), in a buffer containing 1M potassium phosphate buffer pH 7.4 and 0.5% vehicle (DMSO). Reactions were incubated for 2 hours at 26.5° C., and estradiol (E2) conversion to estrone (E1) was quantitated by LC-MS/MS based analyte detection for E1 using LCMS grade reagents. Reactions were terminated by the addition of two volumes of acetonitrile (MeCN; LCMS grade; CAS #75/05/8) containing deuterated (D4)-E1 as internal standard (Clear Synth; #CS-T-54273; 500 ng/mL final concentration). Samples were applied to pre-prepared Bond Elut-C18 extraction cartridges (3 mL; Agilent; Ser. No. 12/102,028), and washed and eluted in MeCN. Eluates were dried under nitrogen and re-suspended in 60% methanol (LCMS grade methanol; CAS #67/56/1) before submission for analysis. Standard curves for E1 were included for quantification. Analysis of samples was undertaken on a XBridge BEH C18 column (Waters; #186003033) using 0.1% Diethyl Amine in MeCN (mobile phase A; DEA CAS #109-89-7) and 0.1% Diethyl Amine in milli-Q water (mobile phase B) in a 3 min gradient up to 25% B. Analytes were detected in negative mode using MRM analysis, with E2 having a RT of 1.85 min and E1 having a RT of 2 min. Activity of the enzyme in the absence of NAD^+, was subtracted from samples to yield values for specific enzyme activity. Enzyme activity in the presence of test samples was expressed as a percentage of the uninhibited enzyme activity, and plotted versus inhibitor concentration. Non-linear regression was performed using the Morrison equation (see below) for tight binding inhibitors on GraphPad Prism software (GraphPad Software, La Jolla, Calif.). All assessments were undertaken in duplicate evaluations which were pooled during the extraction process and subsequently injected as duplicates for LC-MS/MS analysis. Y=Vo*(1−((((Et+X+Q)−(((Et+X+Q)^2)−4*Et*X)^0.5))/(2*Et))) Morrison equation:
Y=Activity in the presence of inhibitor; Vo=Activity in absence of inhibitor; Et=Total enzyme concentration; X=inhibitor concentration; and Q=(Ki*(1+(S/Km))), where Ki is the inhibition constant, Km is the Michaelis constant, and S is the substrate concentration.

As usually defined, the IC50 is the point on the concentration scale where inhibition reaches its midpoint. High values mean weaker potency in that assay, low ones greater potency in that assay. As for `COc1ccccc1CCNC(=O)c1sccc1NC(=O)c1ccc(O)c(Cl)c1` [Example 1, 3-(3-chloro-4-hydroxybenzamido)-N-(2-methoxyphenethyl)thiophene-2-carboxamide], the values for the half-inhibitory concentration (IC50) in test [1] and in test [2] were ≤ 1000 nM and ≤ 100 nM, respectively.
`CC(C)CNC(=O)c1sccc1NC(=O)c1ccc(O)c(Cl)c1` [Example 2, 3-(3-chloro-4-hydroxybenzamido)-N-isobutylthiophene-2-carboxamide]: the half-maximal inhibitory concentration (IC50) in test [1] was ≤ 1000 nM; in test [2] it was ≤ 100 nM.
Turning to `COc1ccccc1CCNC(=O)c1sccc1NC(=O)c1ccc(OCC(=O)O)c(Cl)c1` [Example 11, 2-(2-chloro-4-((2-((2-methoxyphenethyl)carbamoyl)thiophen-3-yl)carbamoyl)phenoxy)acetic acid], the half-inhibitory concentration (IC50) in test [1] is > 10000 nM.
`COc1ccccc1CCNC(=O)c1c(NC(=O)c2ccc(O)c(Cl)c2)sc2c1CCN(C)C2` [Example 15, 2-(3-chloro-4-hydroxybenzamido)-N-(2-methoxyphenethyl)-6-methyl-4,5,6,7-tetrahydrothieno[2,3-c]pyridine-3-carboxamide] displayed a half-inhibitory concentration (IC50) in test [2] of 100 to 1000 nM.
With `COc1ccccc1CCNC(=O)c1sccc1NC(=O)c1cnc(O)c(Cl)c1` [Example 21, 5-chloro-6-hydroxy-N-(2-((2-methoxyphenethyl)carbamoyl)thiophen-3-yl)nicotinamide], in test [1], the IC50 was > 10000 nM.
`COc1ccccc1CCNC(=O)c1sccc1NC(=O)c1ccc(CCC(=O)O)c(F)c1` [Example 22, 3-(2-fluoro-4-((2-((2-methoxyphenethyl)carbamoyl)thiophen-3-yl)carbamoyl)phenyl) propanoic acid]: the IC50 in test [1] was > 10000 nM.
The same measure, in the same setting: as for `COc1ccccc1CCNC(=O)c1sccc1NC(=O)c1cc(Cl)c(O)c(C(C)C)c1` [Example 23, 3-(3-chloro-4-hydroxy-5-isopropylbenzamido)-N-(2-methoxyphenethyl)thiophene-2-carboxamide], the figure is > 10000 nM; as for `COc1ccccc1CCNC(=O)c1sccc1NC(=O)c1cc(Cl)c(O)c(Cl)c1` [Example 32, 3-(3,5-dichloro-4-hydroxybenzamido)-N-(2-methoxyphenethyl)thiophene-2-carboxamide], ≤ 1000 nM.
`O=C(Nc1cc(Cl)sc1C(=O)NCCc1ccc(F)cc1Cl)c1ccc(O)c(F)c1` [Example 34, 5-chloro-N-(2-chloro-4-fluorophenethyl)-3-(3-fluoro-4-hydroxybenzamido) thiophene-2-carboxamide]: the 50% inhibitory concentration (IC50) in test [2] was 100 to 1000 nM.
With `O=C(Nc1cc(Cl)sc1C(=O)NC1(c2ccc(F)cc2)CC1)c1cc(F)c(O)c(F)c1` [Example 35, 5-chloro-3-(3,5-difluoro-4-hydroxybenzamido)-N-(1-(4-fluorophenyl)cyclopropyl)thiophene-2-carboxamide], the IC50 in test [2] is ≤ 100 nM.
For the compound `O=C(Nc1cc(Cl)sc1C(=O)NCCc1ccc(Cl)cc1Cl)c1ccc(O)c(F)c1` [Example 36, 5-chloro-N-(2,4-dichlorophenethy1)-3-(3-fluoro-4-hydroxybenzamido)thiophene-2-carboxamide], in test [2], the half-inhibitory concentration (IC50) was ≤ 100 nM.
As for `CN1CCN(CCNC(=O)c2sc(Cl)cc2NC(=O)c2ccc(O)c(F)c2)CC1` [Example 37, 5-chloro-3-(3-fluoro-4-hydroxybenzamido)-N-(2-(4-methylpiperazin-1-yl)ethyl)thiophene-2-carboxamide], the concentration for half-maximal inhibition (IC50) in test [2] was in the range of 100 to 1000 nM.
The same measure, in the same setting: under `O=C(Nc1cc(Cl)sc1C(=O)NCCN1CCOCC1)c1ccc(O)c(F)c1` [Example 38, 5-chloro-3-(3-fluoro-4-hydroxybenzamido)-N-(2-morpholinoethyl)thiophene-2-carboxamide] stands ≤ 100 nM.
In the case of `O=C(Nc1cc(Cl)sc1C(=O)NCCc1ccc(F)cc1F)c1ccc(O)c(F)c1` [Example 39, 5-chloro-N-(2,4-difluorophenethyl)-3-(3-fluoro-4-hydroxybenzamido)thiophene-2-carboxamide], the IC50 in test [2] is ≤ 100 nM.
For `O=C(Nc1sc(Cl)cc1C(=O)NCCc1ccccc1OC(F)(F)F)c1ccc(O)c(Cl)c1` [Example 40, 5-chloro-2-(3-chloro-4-hydroxybenzamido)-N-(2-(trifluoromethoxy)phenethyl)thiophene-3-carboxamide], in test [2], the IC50 was ≤ 100 nM.
In the case of `O=C(Nc1sc(Cl)cc1C(=O)NCCN1CCOCC1)c1ccc(O)c(F)c1` [Example 41, 5-chloro-2-(3-fluoro-4-hydroxybenzamido)-N-(2-morpholinoethyl)thiophene-3-carboxamide.], the 50% inhibitory concentration (IC50) in test [2] lay within 100 to 1000 nM.
With `CN1CCN(CCNC(=O)c2cc(Cl)sc2NC(=O)c2ccc(O)c(F)c2)CC1` [Example 42, 5-chloro-2-(3-fluoro-4-hydroxybenzamido)-N-(2-(4-methylpiperazin-1-yl)ethyl)thiophene-3-carboxamide], the half-maximal inhibitory concentration (IC50) in test [2] fell in the range of 1000 to 10000 nM.
Consider `O=C(Nc1sc(Cl)cc1C(=O)NCCc1ccccc1F)c1ccc(O)c(F)c1` [Example 43, 5-chloro-2-(3-fluoro-4-hydroxybenzamido)-N-(2-fluorophenethyl)thiophene-3-carboxamide], for which the IC50 in test [2] was ≤ 100 nM.
As to `O=C(Nc1cc(Cl)sc1C(=O)NCCc1ccccc1C(F)(F)F)c1cc(F)c(O)c(F)c1` [Example 44, 5-chloro-3-(3,5-difluoro-4-hydroxybenzamido)-N-(2-(trifluoromethyl)phenethyl) thiophene-2-carboxamide], in test [2], the IC50 is ≤ 100 nM.
As for `O=C(Nc1cc(Cl)sc1C(=O)NCCc1ccccc1C(F)(F)F)c1ccc(O)c(Cl)c1` [Example 45, 5-chloro-3-(3-chloro-4-hydroxybenzamido)-N-(2-(trifluoromethyl)phenethyl) thiophene-2-carboxamide], in test [2], the half-maximal inhibitory concentration (IC50) is ≤ 100 nM.
For the compound `O=C(Nc1sc(Cl)cc1C(=O)NCCc1ccccc1OC(F)(F)F)c1ccc(O)c(F)c1` [Example 46, 5-chloro-2-(3-fluoro-4-hydroxybenzamido)-N-(2-(trifluoromethoxy)phenethyl) thiophene-3-carboxamide], in test [2], the IC50 was ≤ 100 nM.
Take `CC(C)(C)CCNC(=O)c1sccc1NC(=O)c1cc(F)c(O)c(Cl)c1` [Example 47, 3-(3-chloro-5-fluoro-4-hydroxybenzamido)-N-(3,3-dimethylbutyl)thiophene-2-carboxamide]: the concentration for half-maximal inhibition (IC50) in test [2] is ≤ 100 nM.
In test [2], `O=C(Nc1ccsc1C(=O)N[C@H](CO)c1ccccc1)c1ccc(O)c(Cl)c1` [Example 48, (S)-3-(3-chloro-4-hydroxybenzamido)-N-(2-hydroxy-1-phenylethyl) thiophene-2-carboxamide] registered a half-maximal inhibitory concentration (IC50) of 100 to 1000 nM.
With `O=C(Nc1ccsc1C(=O)N[C@@H](CO)c1ccccc1)c1ccc(O)c(Cl)c1` [Example 49, (R)-3-(3-chloro-4-hydroxybenzamido)-N-(2-hydroxy-1-phenylethyl)thiophene-2-carboxamide], the IC50 in test [2] was ≤ 100 nM.
